In the NIST ThermoML archive (doi:10.1016/j.fluid.2017.03.010):
Numbers after ± are expanded uncertainties.

Settings: Liquid

Normal boiling temperature (Othmer still) [°C] | Normal boiling temperature (othmer still) [°C] | Compound
100.00 ± 1.6 |  | O [water]
 | 78.30 ± 1.6 | CCO [ethanol]
